# From patent US12263171B2, “7-, 8-, and 10-substituted amino triazolo quinazoline derivatives as adenosine receptor antagonists, pharmaceutical compositions and their use” (Merck Sharp & Dohme LLC, priority 2018, dated 2025)
# pIC50: −log10 of the molar value.
# Legend:
# [1] = target: T1, human A2a adenosine receptor (Homo sapiens (Human), UniProt P29274); experiment: A2A antagonism in cAMP cell-based assay (LANCE cAMP, HEK293 cells, 300 nM adenosine); settings: values marked *: cAMP cell-based assay
# Procedure: Measurement of A2A and A2B Antagonism in cAMP Cell-Based Assay
# All subsequent liquid additions were performed using a multichannel pipettor. […] After this time 5 μL of either 300 nM or 600 nM adenosine (Sigma Cat. No. A9251) for A2A and A2B respectively was added and incubated for 30 minutes at 37° C. and 5% CO2 in a humidified environment. At this time detection mix was prepared by combining the LANCE Eu-W8044 labeled streptavidin and. Biotin-cAMP in detection buffer according to the manufacturers protocol. […] Curve fitting of the percent effect data versus the log of compound concentration used a 4-parameter concentration response curve fitting algorithm to calculate IC50 values.
# [2] = target: T2, human A2b adenosine receptor (Homo sapiens (Human), UniProt P29275); experiment: A2B antagonism in cAMP cell-based assay (LANCE cAMP, HEK293 cells, 600 nM adenosine); settings: for pIC50: values marked *: cAMP cell-based assay
# [3] = target: T2, human A2b adenosine receptor; experiment: A2b radioligand filtration binding assay (tritiated proprietary A2b antagonist, HEK293 membranes); settings: @ 10000 nM, unstarred
# In short: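 Displacement of a tritiated proprietary A2b antagonist from membranes of HEK293 cells recombinantly expressing human A2b receptor, measured by filtration and scintillation counting. Percent effect was normalized to total and non-specific binding and fitted with a 4-parameter logistic to give IC50.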
# [4] = target: T1, human A2a adenosine receptor; experiment: A2a receptor affinity radioligand binding assay ([3H] SCH58261, membranes from HEK293 or CHO cells); settings: unstarred values: radioligand binding
# In short: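 Displacement of tritiated SCH58261 (working dilution 4 nM) from recombinant human A2a receptor membranes (HEK293 or CHO), 60 min at room temperature in Tris pH 7.4/MgCl2 buffer after 15–30 min compound preincubation. Scintillation counting after filtration; normalized percent effect fitted 4-parameter logistic for IC50.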
# T2 sequence (P29275 whole entry): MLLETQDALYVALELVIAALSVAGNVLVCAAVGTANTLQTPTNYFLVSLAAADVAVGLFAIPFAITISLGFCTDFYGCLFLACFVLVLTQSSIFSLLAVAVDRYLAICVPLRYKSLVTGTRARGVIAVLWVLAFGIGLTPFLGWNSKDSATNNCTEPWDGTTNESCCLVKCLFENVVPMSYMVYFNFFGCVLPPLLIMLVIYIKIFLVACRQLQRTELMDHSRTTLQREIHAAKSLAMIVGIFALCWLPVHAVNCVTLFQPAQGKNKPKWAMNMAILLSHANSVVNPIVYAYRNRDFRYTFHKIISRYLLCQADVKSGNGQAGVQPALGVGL
# T1 sequence (P29274 whole entry): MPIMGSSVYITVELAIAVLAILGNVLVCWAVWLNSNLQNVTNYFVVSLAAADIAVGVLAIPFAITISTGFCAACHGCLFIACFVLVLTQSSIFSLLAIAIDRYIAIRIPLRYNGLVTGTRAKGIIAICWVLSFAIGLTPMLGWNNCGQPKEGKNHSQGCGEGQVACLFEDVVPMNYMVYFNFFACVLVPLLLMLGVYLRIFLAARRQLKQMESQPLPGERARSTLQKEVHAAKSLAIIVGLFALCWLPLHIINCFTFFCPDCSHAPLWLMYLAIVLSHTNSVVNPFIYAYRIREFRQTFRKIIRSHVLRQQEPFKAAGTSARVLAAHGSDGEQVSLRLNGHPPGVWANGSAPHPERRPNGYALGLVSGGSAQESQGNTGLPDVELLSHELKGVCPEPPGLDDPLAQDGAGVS
pIC50 [1],pIC50 [2],A2B binding % inh. @ 10000 nM [3] [% inh. @ 10000 nM],pIC50 [4],"*A2B cAMP % inh. @ 10000 nM ([2]; @ 10000 nM, marked *) [% inh. @ 10000 nM*]",SMILES
6.99,5.66,–,–,–,"COc1cccc2c1nc(N)n1nc(C3CCC(C)N(c4cnn(C(C)(C)CO)c4)C3)nc21 (single isomer, unassigned) [Example 146C]"
6.20,< 5.00,–,–,–,"COc1ccc2c(c1)nc(N)n1nc([C@@H]3C[C@@H](C(F)(F)F)CN(c4cnn(CC(C)(C)O)c4)C3)nc21 (single isomer, unassigned) [Example 218B, 1-(4-((3R,5R or 3S,5S)-3-(5-amino-8-methoxy-[1,2,4]triazolo[1,5-c]quinazolin-2-yl)-5-(trifluoromethyl)piperidin-1-yl)-1H-pyrazol-1-yl)-2-methylpropan-2-ol]"
7.39,–,18,–,–,"COc1cccc2c1nc(N)n1nc([C@@H]3CCCN(c4cc(C(F)(F)F)ccn4)C3)nc21 [Example 116, (R)-7-melhoxy-2-(1-(4-(trifluoromethyl)pyridin-2-yl)piperidin-3-yl)-[1,2,4]triazolo[1,5-c]quinazolin-5-amine]"
7.97,6.98,–,–,–,"COc1cccc2c1nc(N)n1nc([C@@H]3CCCN(c4ccc(C(F)(F)F)cn4)C3)nc21 [Example 118, (R)-7-methoxy-2-(1-(5-(trifluoromethyl)pyridin-2-yl)piperidin-3-yl)-[1,2,4]triazolo[1,5-c]quinazolin-5-amine]"
7.52,6.34,–,–,–,"COc1cccc2c1nc(N)n1nc([C@H]3CC[C@@H](C)N(c4cn(CC(C)(C)O)nc4C)C3)nc21 [Example 145D, 1-(4-((2R,5S)-5-(5-amino-7-methoxy-[1,2,4]triazolo[1,5-c]quinazolin-2-yl)-2-methylpiperidin-1-yl)-3-methyl-1H-pyrazol-1-yl)-2-methylpropan-2-ol]"
–,5.88,–,8.06,–,CC[C@H]1CC[C@H](c2nc3c4ccc(OC)cc4nc(N)n3n2)CN1c1cnn(C(C)(C)CO)c1 [Example 215C]
–,6.14,–,7.68,–,CC[C@H]1CC[C@@H](c2nc3c4ccc(OC)cc4nc(N)n3n2)CN1c1cnn(C(C)(C)CO)c1 [Example 215D]
–,6.19,–,7.47,–,"CC[C@@H]1CC[C@@H](c2nc3c4cccc(OC)c4nc(N)n3n2)CN1c1cnn(CC(C)(C)O)c1 [Example 216A, 1-(4-((2R,5R)-5-(5-amino-7-methoxy-[1,2,4]triazolo[1,5-c]quinazolin-2-yl)-2-ethylpiperidin-1-yl)-1H-pyrazol-1-yl)-2-methylpropan-2-ol]"
–,8.18,–,9.40,–,"CC[C@H]1CC[C@H](c2nc3c4cccc(OC)c4nc(N)n3n2)CN1c1cnn(CC(C)(C)O)c1 [Example 216B, 1-(4-((2S,5S)-5-(5-amino-7-methoxy-[1,2,4]triazolo[1,5-c]quinazolin-2-yl)-2-ethylpiperidin-1-yl)-1H-pyrazol-1-yl)-2-methylpropan-2-ol]"
–,6.53,–,7.63,–,"CC[C@H]1CC[C@@H](c2nc3c4cccc(OC)c4nc(N)n3n2)CN1c1cnn(CC(C)(C)O)c1 [Example 216C, 1-(4-((2S,5R)-5-(5-amino-7-methoxy-[1,2,4]triazolo[1,5-c]quinazolin-2-yl)-2-ethylpiperidin-1-yl)-1H-pyrazol-1-yl)-2-methylpropan-2-ol]"
–,5.70,–,9.30,–,"COc1ccc2c(c1)nc(N)n1nc([C@H]3C[C@@H](C)CN(c4cn([C@@H](C)[C@H](C)O)nc4C)C3)nc21 [Example 219A, (2S,3S)-3-(4-((3S,5R)-3-(5-amino-8-methoxy-[1,2,4]triazolo[1,5-c]quinazolin-2-yl)-5-methylpiperidin-1-yl)-3-methyl-1H-pyrazol-1-yl)butan-2-ol]"
–,6.00,–,9.70,–,"COc1ccc2c(c1)nc(N)n1nc([C@@H]3C[C@H](C)CN(c4cn([C@H](C)[C@@H](C)O)nc4C)C3)nc21 [Example 219B, (2R,3R)-3-(4-((3R,5S)-3-(5-amino-8-methoxy-[1,2,4]triazolo[1,5-c]quinazolin-2-yl)-5-methylpiperidin-1-yl)-3-methyl-1H-pyrazol-1-yl)butan-2-ol]"
7.41,5.25,–,–,–,"COc1ccc2c(c1)nc(N)n1nc([C@H]3C[C@@H](C)CN(c4cn([C@H](C)[C@@H](C)O)nc4C)C3)nc21 [Example 219C, (2R,3R)-3-(4-((3S,5R)-3-(5-amino-8-methoxy-[1,2,4]triazolo[1,5-c]quinazolin-2-yl)-5-methylpiperidin-1-yl)-3-methyl-1H-pyrazol-1-yl)butan-2-ol]"
7.35,–,–,–,33,"COc1ccc2c(c1)nc(N)n1nc([C@@H]3C[C@H](C)CN(c4cn([C@@H](C)[C@H](C)O)nc4C)C3)nc21 [Example 219D, (2S,3S)-3-(4-((3R,5S)-3-(5-amino-8-methoxy-[1,2,4]triazolo[1,5-c]quinazolin-2-yl)-5-methylpiperidin-1-yl)-3-methyl-1H-pyrazol-1-yl)butan-2-ol]"
–,7.18,–,8.99,–,"COc1ccc2c(c1)nc(N)n1nc([C@@H]3CCCN(c4cnn([C@@H](C)[C@H](C)O)c4)C3)nc21 [Example 220A, (2S,3S)-3-(4-((R)-3-(5-amino-8-methoxy-[1,2,4]triazolo[1,5-c]quinazolin-2-yl)piperidin-1-yl)-1H-pyrazol-1-yl)butan-2-ol]"
–,7.28,–,8.86,–,"COc1ccc2c(c1)nc(N)n1nc([C@@H]3CCCN(c4cnn([C@H](C)[C@@H](C)O)c4)C3)nc21 [Example 220B, (2R,3R)-3-(4-((R)-3-(5-amino-8-methoxy-[1,2,4]triazolo[1,5-c]quinazolin-2-yl)piperidin-1-yl)-1H-pyrazol-1-yl)butan-2-ol]"
–,7.21,–,8.72,–,"COc1ccc2c(c1)nc(N)n1nc([C@@H]3CCCN(c4cnn([C@@H](C)[C@@H](C)O)c4)C3)nc21 [Example 221A, (2R,3S)-3-(4-((R)-3-(5-amino-8-methoxy-[1,2,4]triazolo[1,5-c]quinazolin-2-yl)piperidin-1-yl)-1H-pyrazol-1-yl)butan-2-ol]"
–,7.07,–,8.82,–,"COc1ccc2c(c1)nc(N)n1nc([C@@H]3CCCN(c4cnn([C@H](C)[C@H](C)O)c4)C3)nc21 [Example 221B, (2S,3R)-3-(4-((R)-3-(5-amino-8-methoxy-[1,2,4]triazolo[1,5-c]quinazolin-2-yl)piperidin-1-yl)-1H-pyrazol-1-yl)butan-2-ol]"
7.20,5.76,–,–,–,"COc1ccc2c(c1)nc(N)n1nc([C@H]3C[C@H](C)CN(c4cnn(C(C)(C)CO)c4)C3)nc21 [Example 222B, 2-(4-((3S,5S)-3-(5-amino-8-methoxy-[1,2,4]triazolo[1,5-c]quinazolin-2-yl)-5-methylpiperidin-1-yl)-1H-pyrazol-1-yl)-2-methylpropan-1-ol]"
–,7.87,–,9.40,–,"COc1ccc2c(c1)nc(N)n1nc([C@H]3C[C@@H](C)CN(c4cnn(C(C)(C)CO)c4)C3)nc21 [Example 222C, 2-(4-((3S,5R)-3-(5-amino-8-methoxy-[1,2,4]triazolo[1,5-c]quinazolin-2-yl)-5-methylpiperidin-1-yl)-1H-pyrazol-1-yl)-2-methylpropan-1-ol]"
7.48,6.18,–,–,–,"COc1ccc2c(c1)nc(N)n1nc([C@@H]3C[C@@H](C)CN(c4cnn(C(C)(C)CO)c4)C3)nc21 [Example 222D, 2-(4-((3R,5R)-3-(5-amino-8-methoxy-[1,2,4]triazolo[1,5-c]quinazolin-2-yl)-5-methylpiperidin-1-yl)-1H-pyrazol-1-yl)-2-methylpropan-1-ol]"
–,7.68,–,9.00,–,"COc1cc(F)c2c(c1)nc(N)n1nc([C@@H]3CC[C@H](C)N(c4cnn(CC(C)(C)O)c4)C3)nc21 [Example 223, 1-(4-((2S,5R)-5-(5-amino-10-fluoro-8-methoxy-[1,2,4]triazolo[1,5-c]quinazolin-2-yl)-2-methylpiperidin-1-yl)-1H-pyrazol-1-yl)-2-methylpropan-2-ol]"
–,8.02,–,9.52,–,"COc1ccc(F)c2c1nc(N)n1nc([C@@H]3CC[C@H](C)N(c4cnn(CC(C)(C)O)c4)C3)nc21 [Example 224, 1-(4-((2S,5R)-5-(5-amino-10-fluoro-7-methoxy-[1,2,4]triazolo[1,5-c]quinazolin-2-yl)-2-methylpiperidin-1-yl)-1H-pyrazol-1-yl)-2-methylpropan-2-ol]"
–,7.49,–,8.92,–,COc1ccc2c(c1)nc(N)n1nc([C@@H]3CCCN(c4cnn(C(C)(C)[C@H](C)O)c4)C3)nc21 [Example 225A]
–,7.11,–,8.49,–,COc1ccc2c(c1)nc(N)n1nc([C@@H]3CCCN(c4cnn(C(C)(C)[C@@H](C)O)c4)C3)nc21 [Example 225B]
